According to publication PMC8839448, “Novel Pyridothienopyrimidine Derivatives: Design, Synthesis and Biological Evaluation as Antimicrobial and Anticancer Agents” (Molecules, 2022):
Converted amounts (≈) assume the structure as drawn. Where two headings read alike, the source gives them in different places.

Key:
[1] = test system: Candida albicans 10231; test: In vitro antifungal activity, MIC by broth dilution; format: cell-based; conditions: yeast, read-out: MIC C. albicans
[2] = test system: Candida tropicals 750; test: as above; format: cell-based; conditions: yeast, read-out: MIC C. tropicals
[3] = test system: Saccharomycese cerevisiae; test: as above; format: cell-based; conditions: Saccharomyces cerevisiae, yeast, read-out: MIC S. cerevisiae
[4] = test system: Aspergillus flavus; test: as above; format: cell-based; conditions: fungi
[5] = test system: Aspergillus niger EM77 (KF774181); test: as above; format: cell-based; conditions: fungi
[6] = test system: all the tested yeasts and fungi strains; test: Antifungal MIC, range over the panel; format: cell-based
[7] = test system: five bacterial and five fungal strains; test: Antimicrobial MIC, range over bacterial and fungal strains; format: cell-based; conditions: for MIC range of the reference drugs: range over strains; for MIC range, antibacterial and antifungal: range over bacterial and fungal strains
[8] = test system: Staphylococcus aureus 25923; test: In vitro antibacterial activity, MIC by broth dilution; format: cell-based; conditions: Gram +ve bacteria, read-out: MIC S. aureus
[9] = test system: Bacillus subtilis 6633; test: as above; format: cell-based; conditions: Gram +ve bacteria, read-out: MIC B. subtilis
[10] = test system: Bacillus cereus 33018; test: as above; format: cell-based; conditions: Gram +ve bacteria, read-out: MIC B. cereus
[11] = test system: Escherichia coli 8739; test: as above; format: cell-based; conditions: Gram −ve bacteria
[12] = test system: Salmonella typhimurium 14028; test: as above; format: cell-based; conditions: Salmonella enterica, Gram −ve bacteria, read-out: MIC S. typhimurium
[13] = test system: hepatocellular carcinoma (HepG2) cells; test: Cytotoxicity, MTT assay; format: cell-based; conditions: Homo sapiens, read-out: Cytotoxic activity IC50 HepG2
[14] = test system: breast cancer (MCF-7) cells; test: Cytotoxicity, MTT assay; format: cell-based, human; conditions: read-out: Cytotoxic activity IC50 MCF7
[15] = test system: HepG2 and MCF-7 cancer cell lines; test: Cytotoxicity, MTT assay, range over both cancer cell lines; format: cell-based, human; conditions: for IC50: Homo sapiens, range over HepG2 and MCF-7, read-out: IC50 range, cytotoxic activity against both cell lines
[16] = Cytotoxicity against normal cells, MTT assay; conditions: human, WISH normal cells
From the text: The cytotoxicity was estimated as IC50 in μM for the tested compounds and the reference drug doxorubicin, and are listed in Table 3.

[17] = molecular target: EGFR kinase (Homo sapiens, UniProt P00533); test: In vitro EGFR kinase inhibitory assay (Kinase-Glo MAX kit); conditions: EGFR IC50, EGFR kinase assay kit, triplicate, ± SD
Sequence of EGFR kinase (P00533 25-1210): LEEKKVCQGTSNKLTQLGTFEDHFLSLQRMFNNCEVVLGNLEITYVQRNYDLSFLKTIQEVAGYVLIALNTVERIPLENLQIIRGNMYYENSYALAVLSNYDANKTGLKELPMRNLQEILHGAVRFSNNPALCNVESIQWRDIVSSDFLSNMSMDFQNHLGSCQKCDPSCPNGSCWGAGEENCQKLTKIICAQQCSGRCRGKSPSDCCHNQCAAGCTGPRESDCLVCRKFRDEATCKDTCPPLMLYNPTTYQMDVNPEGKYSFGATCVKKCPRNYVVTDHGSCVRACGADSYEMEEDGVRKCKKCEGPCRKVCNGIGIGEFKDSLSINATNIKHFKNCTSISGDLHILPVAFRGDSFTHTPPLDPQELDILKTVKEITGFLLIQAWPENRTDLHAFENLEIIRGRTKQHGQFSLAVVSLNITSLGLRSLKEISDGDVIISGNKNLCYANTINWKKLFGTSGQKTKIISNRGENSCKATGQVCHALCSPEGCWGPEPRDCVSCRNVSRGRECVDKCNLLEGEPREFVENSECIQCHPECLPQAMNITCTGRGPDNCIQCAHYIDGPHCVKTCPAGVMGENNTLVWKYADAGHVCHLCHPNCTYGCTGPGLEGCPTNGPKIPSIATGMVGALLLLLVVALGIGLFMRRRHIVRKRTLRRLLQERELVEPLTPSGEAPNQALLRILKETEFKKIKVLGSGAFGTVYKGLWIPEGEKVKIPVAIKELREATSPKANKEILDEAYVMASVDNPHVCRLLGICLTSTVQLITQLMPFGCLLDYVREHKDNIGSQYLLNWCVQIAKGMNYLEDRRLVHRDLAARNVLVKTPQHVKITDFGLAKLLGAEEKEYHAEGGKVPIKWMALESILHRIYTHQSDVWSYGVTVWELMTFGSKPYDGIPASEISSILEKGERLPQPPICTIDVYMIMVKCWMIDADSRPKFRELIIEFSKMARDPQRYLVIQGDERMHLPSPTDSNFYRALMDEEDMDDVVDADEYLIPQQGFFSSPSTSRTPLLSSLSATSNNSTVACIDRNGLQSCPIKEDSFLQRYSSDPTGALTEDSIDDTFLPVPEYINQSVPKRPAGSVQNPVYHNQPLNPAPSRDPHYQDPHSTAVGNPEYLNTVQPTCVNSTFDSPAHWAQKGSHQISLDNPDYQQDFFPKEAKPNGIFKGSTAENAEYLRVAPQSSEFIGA
Method: The assay kit is designed to measure EGFR Kinase activity for screening applications using Kinase-Glo® MAX as a detection reagent. The luminescence was measured using a microplate reader (Infinite M200 microplate reader, Tecan, Männedorf, Switzerland) [54]. All assays were performed in triplicate and the relative inhibition (%) of inhibitors was then calculated via comparison with the control with no inhibitor.
In vitro EGFR kinase assay
The assay Kit is designed to measure EGFR Kinase
activity for screening applications using Kinase-Glo® MAX as a detection reagent
using Kinase-Glo® MAX as a detection reagent. Thaw 5x Kinase Buffer 1: ATP and
PTK substrate Poly (Glu:Tyr 4:1) (10 mg/ml) kinase was provided. Then the master
mixture was prepared: N wells x (6 μl 5x Kinase Buffer 1 + 1 µl ATP (500 µM) + 1
µl PTK substrate Poly (Glu:Tyr 4:1) (10 mg/ml)+ 17 μl water) and 25 μl of the
mixture was added to every well. The tested compounds were dissolved in DMSO,
well labeled as “Positive Control", 5 μl of the same solution of the reference drug
erlotinib and “Blank”, 5 μl of the same solution without inhibitor (Inhibitor buffer).
ml of 1x Kinase Buffer 1) was prepared by mixing 600 µl of 5x Kinase Buffer 1 with
The reaction initiated by adding 20 µl of diluted EGFR enzyme to the wells designated “Positive Control” and "Test Inhibitor Control". Incubate at 30°C for 40
minutes. Thaw Kinase-G lo Max reagent. After the 40 minute reaction, 50 µl of
Kinase-Glo Max reagent was added to each well. The plate was covered with
aluminum foil and incubate at room temperature for 15 minutes. Then the
luminescence was measured using the microplate reader (Infinite M200 microplate
reader, Tecan, Männedorf, Switzerland). All assays were performed in triplicate. The
relative inhibition (%) of inhibitors were then calculated compared to the control with
no inhibitor. Then the IC50 values and their standard deviation (SD) for the tested
compounds and the reference drug were determined in (nM).

[18] = test system: five bacterial strains; test: Antibacterial MIC, range over the panel; format: cell-based
[19] = test system: E. coli; conditions: Figure 1, reported agents; ref [21],[22],[33],[34]; cited from earlier work
[20] = test system: S. typhimurium; conditions: Figure 1, reported agents; ref [21],[22],[33],[34]; cited from earlier work
[21] = test system: B. cereus; conditions: Figure 1, reported agents; ref [21],[22],[33],[34]; cited from earlier work
[22] = test system: S. aureus; conditions: Figure 1, reported agents; ref [21],[22],[33],[34]; cited from earlier work
[23] = test system: HepG2 and MCF-7; conditions: Figure 1, reported agents; ref [21],[22],[33],[34]; read-out: IC50 range HepG2 and MCF-7; cited from earlier work

Compound | MIC [1] [µg/mL] | MIC [2] [µg/mL] | MIC [3] [µg/mL] | MIC [4] [µg/mL] | MIC [5] [µg/mL] | MIC range against the tested yeasts and fungi strains [6] [µg/mL] | MIC [8] [µg/mL] | MIC [9] [µg/mL] | MIC [10] [µg/mL] | MIC [11] [µg/mL] | MIC [12] [µg/mL] | IC50 [13] [µM] | IC50 ([14]; Homo sapiens, MCF7, MCF7 cells) [µM] | IC50 [15] [µM] | melting point [°C] | IC50 [16] [µM] | IC50 [17] [µM] | further results
Clc1ccccc1C(c1ccccc1)(c1ccccc1)n1ccnc1 [Clotrimazole, clotrimazole, reference compound] | 16 (≈ 46.4 µM) | 8 (≈ 23.2 µM) | 8 (≈ 23.2 µM) | 8 (≈ 23.2 µM) | 8 (≈ 23.2 µM) | 4 to 16 | – | – | – | – | – | – | – | – | – | – | – | MIC range of the reference drugs [7]: 4 to 16 µM
Cc1ccc(-c2cc(-c3ccccc3)nc3sc4c(c23)NC2(CCCC2)N=C4SCC2CO2)cc1 (stereo not shown) [Compound 9b, 4′-((Oxiran-2-ylmethyl)sulfanyl)-7′-phenyl-9′-(p-tolyl)-1′H-spiro[cyclopentane-1,2′-pyrido[3′,2′:4,5]thieno[3,2-d]pyrimidine]] | 4 (≈ 8.04 µM) | 4 (≈ 8.04 µM) | 8 (≈ 16.1 µM) | 8 (≈ 16.1 µM) | 8 (≈ 16.1 µM) | 4 to 16 | 4 (≈ 8.04 µM) | 4 (≈ 8.04 µM) | 8 (≈ 16.1 µM) | 4 (≈ 8.04 µM) | 16 (≈ 32.1 µM) | 1.17 ± 0.09 | 1.52 ± 0.08 | 1.17 to 2.79 | 120 | 418 ± 14.1 | 0.00727 ± 0.00011 | MIC range, antibacterial and antifungal [7]: 4 to 16 µg/mL; Fold higher growth inhibition than doxorubicin ([15]; HepG2 and MCF-7, relative to doxorubicin): 2–3 fold
Cc1ccc(-c2cc(-c3ccccc3)nc3sc4c(=O)[nH]c(CN5CCOCC5)nc4c23)cc1 [Compound 5a, 2-(Morpholinomethyl)-7-phenyl-9-(p-tolyl)pyrido[3′,2′:4,5]thieno[3,2-d]pyrimidin-4(3H)-one] | 16 (≈ 34.1 µM) | 8 (≈ 17.1 µM) | 8 (≈ 17.1 µM) | 8 (≈ 17.1 µM) | 16 (≈ 34.1 µM) | 4 to 16 | 8 (≈ 17.1 µM) | 8 (≈ 17.1 µM) | 16 (≈ 34.1 µM) | 8 (≈ 17.1 µM) | 16 (≈ 34.1 µM) | 1.99 ± 0.09 | 2.79 ± 0.18 | 1.17 to 2.79 | 245 | 408 ± 15.9 | 0.00966 ± 8e-05 | MIC range against the tested bacterial strains [18]: 8 to 16 µg/mL; MIC range, antibacterial and antifungal [7]: 4 to 16 µg/mL
Cc1cc(C)c2c(n1)sc1c(Cl)nc(Cl)nc12 [Compound 3a, 2,4-Dichloro-7,9-dimethylpyrido[3′,2′:4,5]thieno[3,2-d]pyrimidine] | 16 (≈ 56.3 µM) | 8 (≈ 28.2 µM) | 8 (≈ 28.2 µM) | 8 (≈ 28.2 µM) | 8 (≈ 28.2 µM) | 4 to 16 | 4 (≈ 14.1 µM) | 4 (≈ 14.1 µM) | 8 (≈ 28.2 µM) | 8 (≈ 28.2 µM) | 16 (≈ 56.3 µM) | 2.31 ± 0.35 | 7.24 ± 0.64 | – | 250 to 251 | 417 ± 15.2 | 0.0173 ± 0.00024 | MIC range, antibacterial and antifungal [7]: 4 to 16 µg/mL
Cc1cc(C)c2c3c(sc2n1)C(=O)NC1(CCCC1)N3 [Compound 6a, 7′,9′-Dimethyl-1′H-spiro[cyclopentane-1,2′-pyrido[3′,2′:4,5]thieno[3,2-d]pyrimidin]-4′(3′H)-one] | 64 (≈ 223 µM) | 16 (≈ 55.7 µM) | 32 (≈ 111 µM) | 64 (≈ 223 µM) | 32 (≈ 111 µM) | – | 32 (≈ 111 µM) | 16 (≈ 55.7 µM) | 8 (≈ 27.8 µM) | 32 (≈ 111 µM) | 16 (≈ 55.7 µM) | 52.2 ± 1.45 | 77.4 ± 3.62 | 12.1 to 77.4 | 245 to 246 | – | – | MIC range against the tested bacterial strains [18]: 8 to 32 µg/mL
CC1(C)S[C@@H]2[C@H](NC(=O)[C@H](N)c3ccc(O)cc3)C(=O)N2[C@H]1C(=O)O [Amoxicillin, amoxicillin trihydrate, reference compound] | – | – | – | – | – | – | 4 | 8 | 16 | 8 | 16 | – | – | – | – | – | – | MIC range against the tested bacterial strains [18]: 4 to 16 µg/mL; MIC range of the reference drugs [7]: 4 to 16 µM
NC(=O)c1sc2nc(-c3ccco3)cc(-c3cccs3)c2c1N [I] | – | – | – | – | – | – | – | – | – | – | – | – | – | – | – | – | – | MIC E. coli [19]: 15.60 µg/mL (≈ 45.7 µM); MIC S. typhimurium [20]: 15.60 µg/mL (≈ 45.7 µM)
Cc1ccc(-c2cc(-c3ccccc3)nc3sc4c(c23)NC2(CCCC2)NC4=O)cc1 [Compound 6b, 7′-Phenyl-9′-(p-tolyl)-1′H-spiro[cyclopentane-1,2′-pyrido[3′,2′:4,5]thieno[3,2-d]pyrimidin]-4′(3′H)-one] | 8 (≈ 18.8 µM) | 8 (≈ 18.8 µM) | 8 (≈ 18.8 µM) | 16 (≈ 37.6 µM) | 8 (≈ 18.8 µM) | 4 to 16 | 4 (≈ 9.4 µM) | 8 (≈ 18.8 µM) | 16 (≈ 37.6 µM) | 8 (≈ 18.8 µM) | 16 (≈ 37.6 µM) | 2.75 ± 0.13 | 9.89 ± 0.55 | – | 210 | 395 ± 10.2 | 0.05319 ± 0.00046 | IC50 ([14]; MCF7 cells): 9.89 ± 0.55 µM
COc1ccc(-c2cc(-c3ccco3)nc3sc(C(N)=O)c(N=C4CCCCC4)c23)cc1 [II] | – | – | – | – | – | – | – | – | – | – | – | – | – | – | – | – | – | MIC E. coli [19]: 15.60 µg/mL (≈ 35 µM); MIC B. cereus [21]: 15.60 µg/mL (≈ 35 µM); MIC S. aureus [22]: 15.60 µg/mL (≈ 35 µM)
CCOC(=O)c1sc2nc(-c3ccc(OC)cc3)cc(-c3cccs3)c2c1N [III] | – | – | – | – | – | – | – | – | – | – | – | – | – | – | – | – | – | MIC E. coli [19]: 7.80 µg/mL (≈ 19 µM); MIC S. aureus [22]: 7.80 µg/mL (≈ 19 µM); IC50 [23]: 33.2 to 34.8 µM
Cc1cc(C)c2c3c(sc2n1)C(=O)NC1(CCCCC1)N3 [Compound 6c, 7′,9′-Dimethyl-1′H-spiro[cyclohexane-1,2′-pyrido[3′,2′:4,5]thieno[3,2-d]pyrimidin]-4′(3′H)-one] | 16 (≈ 53.1 µM) | 4 (≈ 13.3 µM) | 16 (≈ 53.1 µM) | 4 (≈ 13.3 µM) | 8 (≈ 26.5 µM) | 4 to 16 | 4 (≈ 13.3 µM) | 4 (≈ 13.3 µM) | 8 (≈ 26.5 µM) | 8 (≈ 26.5 µM) | 16 (≈ 53.1 µM) | 12.1 ± 0.33 | 22.2 ± 0.67 | 12.1 to 77.4 | 290 to 291 | – | – | –
